The record followed here is ChEMBL document CHEMBL1201862, “PubChem BioAssay data set” (2004).

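Following 48 hours of exposure in 96-well plates, responses at five concentrations were used to interpolate endpoints linearly. Here, GI50 denotes the concentration required for 50% inhibition of growth.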 Calls of active or inactive are those of the source. Rule as the data show it: active = GI50 up to about 1.1 µM and inactive = higher. A value given as a limit tells only on which side of the number the result lay.

Common to all, as to assay: NCI tumour cell line growth inhibition, 48 h
Assay [1] deals with RXF 393.
Assay [2] concerns LOX IMVI.
Assay [3] deals with CAKI-1.
Assay [4] deals with K562.
Assay [5] concerns OVCAR-4.
For assay [6], the system named is UACC-257.
For assay [7], the system named is SF-268.
In assay [8] the test system is SNB-19.
The subject of assay [9] is NCI-H23.
Assay [10] relates to SR.
For assay [11], the system named is SK-MEL-5.
Assay [12] relates to COLO 205.
Assay [13] deals with MCF7.
The subject of assay [14] is HOP-92.
For assay [15], the system named is U-251.
The subject of assay [16] is SN12C.
In assay [17] the test system is Hs-578T.
Assay [18] has as its system SW-620.
For assay [19], the system named is MDA-N.
For assay [20], the system named is CCRF-CEM.

Regarding `CC(Oc1ccc(Cl)cc1Cl)C(=O)NN1C(=O)CC(=O)N(c2ccccc2)C1=S` (stereo unspecified), the GI50 is 41 µM (inactive) in [1]; 55 µM (inactive) in [2]; 53.6 µM (inactive) in assay [3]; 41.7 µM (inactive) in [4]; 45.8 µM (inactive) in assay [5]; 74.6 µM (inactive) in assay [6]. Moreover, the GI50 in [7] was 95.1 µM (inactive); in assay [8], 66.4 µM (inactive); in [9] it was 37.2 µM (inactive); in assay [10], 4.67 µM (inactive); in assay [11] it was 47.4 µM (inactive); in assay [12] it was 33.7 µM (inactive). For the same molecule, the GI50 is 35.5 µM (inactive) in assay [13]; 24.9 µM (inactive) in [14]; 41.9 µM (inactive) in assay [15]; 52.4 µM (inactive) in assay [16]; > 100 µM (inactive) in assay [17]; 53.1 µM (inactive) in assay [18].

On to `CC(C)(Cl)C(Br)CCC(C)(Br)C(Br)CBr` (stereo unspecified), for which the GI50 in assay [1] is 22.1 µM (inactive); in [19], 19.5 µM (inactive); in assay [20], 10.5 µM (inactive); in assay [4], 23 µM (inactive); in assay [5], 18.7 µM (inactive); in assay [6] it was 18.7 µM (inactive). Also, the GI50 in [7] is 16.9 µM (inactive); in assay [8] it was 23.1 µM (inactive); in [9], 19.5 µM (inactive); in assay [11], 14.6 µM (inactive); in assay [12], 16.9 µM (inactive); in [14], 21.5 µM (inactive). Also, the GI50 in assay [15] is 16.5 µM (inactive); in [16], 20 µM (inactive); in assay [17], 21.5 µM (inactive); in assay [18] it was 16.3 µM (inactive).

For `Oc1ccc(-c2nc3cc(F)ccc3s2)cc1`, the GI50 was 27.4 µM (inactive) in assay [1]; 17.9 µM (inactive) in assay [2]; 28.4 µM (inactive) in assay [19]; 23.7 µM (inactive) in assay [3]; 43.8 µM (inactive) in assay [20]; 22.6 µM (inactive) in [4]. The GI50 in [5] was 13.6 µM (inactive); in [6], 27.4 µM (inactive); in assay [7], 26.7 µM (inactive); in assay [8], 36.7 µM (inactive); in assay [9], 32.3 µM (inactive); in [10], 2.38 µM (inactive). In addition, the GI50 in [11] is 19.5 µM (inactive); in assay [12], 18.6 µM (inactive); in [13], 1.14 µM (inactive); in assay [14] it was 21.3 µM (inactive); in [15], 19.9 µM (inactive); in assay [16], 22.2 µM (inactive). Besides, the GI50 in assay [18] is 41.5 µM (inactive).

`O=C1CC[C@@]2(O)[C@H]3Cc4ccc(-c5cccc(O)c5)c5c4[C@@]2(CCN3CC2CC2)[C@H]1O5`: the GI50 was 17.3 µM (inactive) in assay [1]; 12.9 µM (inactive) in [2]; 14.6 µM (inactive) in [19]; 37.6 µM (inactive) in assay [3]; < 0.01 µM (active) in [20]; 21.9 µM (inactive) in assay [4]. Further, the GI50 in assay [5] is 23.3 µM (inactive); in assay [6], 1.01 µM (active); in assay [7] it was 22.3 µM (inactive); in assay [8], 4.3 µM (inactive); in [9], 27 µM (inactive); in assay [10], 26.3 µM (inactive). Also, the GI50 is 16.3 µM (inactive) in [11]; 21 µM (inactive) in assay [12]; 16.9 µM (inactive) in assay [13]; 25.7 µM (inactive) in assay [14]; 8.38 µM (inactive) in assay [15]; 17.6 µM (inactive) in assay [16]. The GI50 in assay [18] is > 35.1 µM (inactive).

In the case of `CC(=O)C1=C(C)N(c2ccc(C)cc2)C2(O)C3=C(C(=O)c4ccccc4C3=O)C(O)=CC12Cl` (stereo unspecified), the GI50 in assay [1] was 9.73 µM (inactive); in [2], 12.1 µM (inactive); in assay [3] it was 10.4 µM (inactive); in assay [4], 7.43 µM (inactive); in assay [5], 17.1 µM (inactive); in assay [6], 9.38 µM (inactive). Besides, the GI50 in [7] is 23.6 µM (inactive); in assay [8], 12.8 µM (inactive); in assay [9], 12.7 µM (inactive); in [10], 7.06 µM (inactive); in assay [11] it was 6.92 µM (inactive); in [12] it was 27.5 µM (inactive). Also, the GI50 in [13] was 12.1 µM (inactive); in assay [14], 43.8 µM (inactive); in assay [15] it was 11.7 µM (inactive); in assay [16], 17 µM (inactive); in assay [17], 6.28 µM (inactive); in [18], 9.86 µM (inactive).

Take `CC12CN(CC[N+](C)(C)C)CC1(C)C1CCC2O1` (stereo unspecified): the GI50 in assay [1], in [2], in assay [3], in assay [20], in assay [4] and in assay [5] was > 100 µM (inactive) throughout. The GI50 in assay [6], in assay [7], in assay [8], in assay [9], in [10] and in [11] was > 100 µM (inactive) in each case. Besides, the GI50 in assay [12], in assay [13], in assay [14], in [15], in assay [16] and in assay [17] was > 100 µM (inactive) each time. The GI50 in [18] is > 100 µM (inactive).

Consider `c1ccc([B-]2(c3ccccc3)OCCc3cccc[n+]32)cc1`, for which the GI50 in [1] was 33.3 µM (inactive); in assay [2], 97.3 µM (inactive); in assay [19], 50.2 µM (inactive); in assay [3], 33 µM (inactive); in assay [20], 23.4 µM (inactive); in [4] it was > 100 µM (inactive). In addition, the GI50 in [5] is 82.4 µM (inactive); in [6], 80.7 µM (inactive); in [7], 97.5 µM (inactive); in assay [8], > 100 µM (inactive); in [9], 48.8 µM (inactive); in assay [10], 22.8 µM (inactive). The GI50 in assay [11] is 41.2 µM (inactive); in assay [12], 26.2 µM (inactive); in [14], 28.2 µM (inactive); in assay [15] it was > 100 µM (inactive); in assay [16] it was 59.3 µM (inactive); in assay [17], 37.7 µM (inactive). The GI50 in assay [18] was 51.9 µM (inactive).

Take `COC(=O)C1=C(C)NC(=S)NC1c1ccc(N(CCCl)CCCl)cc1Cl` (stereo unspecified): the GI50 in [1] was > 34.9 µM (inactive); in assay [2] it was 24.8 µM (inactive); in assay [3], 2 µM (inactive); in assay [20], 0.824 µM (active); in assay [4], 8.99 µM (inactive); in assay [5] it was 16.3 µM (inactive). Moreover, the GI50 was 2.44 µM (inactive) in assay [6]; 23.9 µM (inactive) in [7]; 49 µM (inactive) in assay [8]; 5.45 µM (inactive) in [9]; 1.82 µM (inactive) in assay [11]; 25.3 µM (inactive) in assay [12]. For the same molecule, the GI50 was 16.7 µM (inactive) in [13]; 74.8 µM (inactive) in assay [14]; 53.6 µM (inactive) in assay [15]; 34.2 µM (inactive) in assay [16]; > 22 µM (inactive) in assay [17]; 33 µM (inactive) in [18].

For the molecule `C=CCN1CCC(OC(=O)C(O)(C#CC)C2CCCC2)CC1` (stereo unspecified), the GI50 in [1], in assay [2], in [19], in [3], in [5] and in assay [6] was > 100 µM (inactive) throughout. Moreover, the GI50 in assay [7], in assay [8], in assay [9], in assay [11], in [12] and in assay [13] was > 100 µM (inactive) in each case. For the same molecule, the GI50 in assay [14], in [15], in assay [16], in [17] and in [18] was > 100 µM (inactive) in each case.

With `O=c1[nH]c(=O)n(COCc2ccccc2)c2ccc([N+](=O)[O-])cc12`, the GI50 in assay [1], in assay [2], in assay [19], in [3], in assay [20] and in [4] was > 100 µM (inactive) throughout. The GI50 is 56.5 µM (inactive) in [5]; > 100 µM (inactive) in [6]; > 100 µM (inactive) in [10]; > 100 µM (inactive) in assay [11]; > 100 µM (inactive) in assay [12]; > 100 µM (inactive) in [13]. In addition, the GI50 in assay [14], in [15], in [16] and in assay [18] was > 100 µM (inactive) each time.

For the molecule `Cc1cs/c(=N/c2ccccc2)n1CCC(O)(P(=O)(O)O)P(=O)(O)O`, the GI50 in assay [1], in assay [2], in [19], in [3], in [6] and in assay [7] was > 100 µM (inactive) each time. The GI50 in assay [8] is > 100 µM (inactive); in assay [9], > 100 µM (inactive); in assay [11], 71.6 µM (inactive); in [12] it was > 100 µM (inactive); in assay [13] it was > 100 µM (inactive); in assay [17], > 100 µM (inactive).
